Test results: paper PMC5234078, “Integrating mass spectrometry with MD simulations reveals the role of lipids in Na^+/H^+ antiporters” (Nature Communications, 2017)

Target: T1, NapA (wild-type NapA, MVV) (Thermus thermophilus, UniProt Q72IM4)
T1 construct: gene TT_C1108; homodimer, 82,450 Da; in C8E4
Assay: native nESI-MS and tandem MS of protein-lipid complexes; ion mobility unfolding
Conditions: detergent C8E4, ammonium acetate pH 7.5; annular, non-specific phospholipid binding

T1 sequence (Q72IM4 entry or part of it): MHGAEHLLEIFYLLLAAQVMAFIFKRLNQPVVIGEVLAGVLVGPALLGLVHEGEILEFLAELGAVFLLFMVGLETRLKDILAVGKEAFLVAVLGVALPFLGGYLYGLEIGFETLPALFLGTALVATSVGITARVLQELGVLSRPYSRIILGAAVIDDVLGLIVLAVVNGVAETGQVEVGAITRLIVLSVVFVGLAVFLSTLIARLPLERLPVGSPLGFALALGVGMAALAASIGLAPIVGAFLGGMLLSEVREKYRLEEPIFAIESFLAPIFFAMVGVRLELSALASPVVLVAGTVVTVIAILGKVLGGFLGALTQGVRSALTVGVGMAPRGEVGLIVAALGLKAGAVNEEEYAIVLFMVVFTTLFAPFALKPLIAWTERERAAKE

| SMILES | native nESI-MS and tandem MS of protein-lipid complexes; ion mobility unfolding |
| --- | --- |
| CCCCCCCC/C=C\CCCCCCCC(=O)O[C@H](COC(=O)CCCCCCCCCCCCCCC)COP(=O)(O)OCCN [PE, 1-palmitoyl-2-oleoyl-glycerophospho-ethanolamine] | NapA with PE show a concentration-dependent increase in the number of lipid adducts |
| CCCCCCCC/C=C\CCCCCCCC(=O)O[C@H](COC(=O)CCCCCCCCCCCCCCC)COP(=O)(O)OCC(O)CO (some centres unmarked) [PG, 1-palmitoyl-2-oleoyl-phosphatidyl-glycerol] | Interactions with negatively charged PG lipids exhibit higher gas-phase stabilities than with zwitterionic PE |
